biological target: T1, TRβ (Homo sapiens, UniProt P10828); assay: ΔSV-CAT reporter cotransfection assay in CV-1 cells with TRβ expression plasmid, ±T3; assay type: cell-based; parameters: expressed in transfected cells; host or cells: CV-1 (monkey kidney); conditions: TRβ expression vector
T1 sequence (P10828 1-461): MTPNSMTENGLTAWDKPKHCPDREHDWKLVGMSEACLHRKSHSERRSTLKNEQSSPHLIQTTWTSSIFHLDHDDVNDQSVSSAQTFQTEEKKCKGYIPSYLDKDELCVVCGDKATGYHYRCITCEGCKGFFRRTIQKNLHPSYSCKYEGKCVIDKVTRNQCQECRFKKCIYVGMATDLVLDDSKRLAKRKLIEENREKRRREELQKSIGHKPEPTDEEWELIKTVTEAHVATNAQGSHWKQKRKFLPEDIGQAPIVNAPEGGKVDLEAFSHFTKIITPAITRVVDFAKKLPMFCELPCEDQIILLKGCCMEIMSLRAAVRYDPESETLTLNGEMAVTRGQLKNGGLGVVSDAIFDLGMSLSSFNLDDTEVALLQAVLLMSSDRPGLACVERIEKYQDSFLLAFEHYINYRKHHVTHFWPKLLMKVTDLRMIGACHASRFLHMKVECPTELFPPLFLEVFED
Text: Receptor expression plasmids used in the following cotransfection assays have been described previously (pRShTRβ [see Thompson, et al., Proc. Natl. Acad. Sci. U.S.A. 86: 3494-3498 (1989)]; pRShRARα [see Giguere, et al., Nature 330: 624-629 (1987)]; pRShRARβ and pRshRARγ [see Ishikawa, et al., Mol. Endocrinol, 4: 837-844 (1990)]; and pRShVDR, [Schule, et al., Cell 61: 497-504 (1990)]. A basal reporter plasmid ΔSV-CAT was constructed by replacing the TK promoter in TK-CAT [Damm, et al., Nature 339: 593-597 (1989)] with the SphI-HindIII fragment of the SV40 early promoter. All of the recombinant CAT reporter plasmids used herein harbor a single copy of the indicated oligonucleotides at the unique HindIII site upstream of the SV40 promoter. […] To improve production of receptor proteins in COS cells, a new eukaryotic expression vector pCMX was prepared by modifying the plasmid CDM8 [Seed, B., Nature 329: 840-842 (1987)]. The CDM8 was cut with MluI and StuI in order to release the DNA fragment encoding the CMV/T7 promoter, SV40 small t intron/poly A signal, polyoma virus enhancer/origin, and SV40 enhancer/origin. The resulting fragment was ligated to a larger fragment of PvuII-digested PUC19. An internal deletion was introduced between unique BamHI and BclI sites present in the DCM8 portion. The stuffer sequence flanked by XbaI sites was replaced with a synthetic polylinker coding for 5′-KpnI/Asp718-EcoRV-BamHI -MscI-NheI-3′, followed by a stretch of 5′-[…]-3′ (SEQ ID NO:48) which can function as a universal termination signal for protein translation. The coding sequence of the luciferase [de Wet, et al., Mol. Cell. Biol. 7: 725-737 (1987)] and human TRβ, RARα, and VDR was placed in the polylinker region of the pCMX, generating pCMX-LUC, Pcmx-Htrβ, pCMX-hRARα, and pCMX-hVDR, respectively. The translation start site of the RARα was modified to […] by attaching the synthetic linker encoding a consensus translation start signal [Hollenberg, et al., Cell 55: 899-906 (1988)].
For cotransfection assays, a monkey kidney cell line CV-1 was kept in Dulbecco's modified Eagle's medium (DMEM) supplemented with 10% charcoal-resin double split calf bovine serum. Transfections were performed via calcium-phosphate precipitation method as described by Umesono, et al. in Cell 57: 1139-1146 (1989), with 0.5 μg of a pRS receptor expression plasmid, 1.0 μg of a reporter CAT plasmid, 5 μg of pRAS-βGAL [Umesono, et al., Cell 57: 1139-1146 (1989)] as an internal control, and 8.5 μg of carrier plasmid pUC19. The cells were transfected for 8 hours; after washing the DNA precipitates, the cells were then incubated for an additional 36 hours with or without the ligand (T3, 100 nM; RA, 1 μM; 1,25-(OH)2 vitamin D3, 100 nM). Cell extracts were prepared for βGAL and CAT assays, as described by Umesono, et al., supra. Transfection of F9 teratocarcinoma cells was carried out employing a similar method except the cells were incubated for 12 hours in the presence of the DNA precipitates, and the RA was added at 1 μM for another 24 hours before harvesting the cells. 2, 5, and 4 μg of the reporter, pRAS-βGAL, and pUC19 were used, respectively.
Target hormone response elements described in FIG. 3 were synthesized as double-stranded oligonucleotides with an overhanging tetranucleotide (5′-agct-3′) at both ends. A single copy of these oligonucleotides was cloned at the unique HindIII site present in the basal promoter CAT construct ΔSV-CAT. Capitalized portions in the nucleotide sequences correspond to those found in the natural promoters except TREp and rGH21, which are synthetic. Bold letters indicate the “AGGTCA” motif and “X” denotes a nucleotide substitution from this motif.

Q: With “GDR-3: identical to DR-3 except half-site changed to AGAACA, a GRE half-site (SEQ ID NO:26) (AGCTTCAGAACAAGGAGAACAGAGAGCT; DNA, backbone not given here; double-stranded DNA response element with agct overhangs, cloned into reporter)” as the substance, how does the “T3 responsiveness (in words)” value read?
A: Its value is “completely inactive”.

Q: Which “T3 responsiveness (in words)” value does the source give for “GDR-4: identical to DR-4 except half-site changed to AGAACA, a GRE half-site (SEQ ID NO:28) (AGCTTCAGAACACAGGAGAACAGAGAGCT; DNA, backbone not given here; double-stranded DNA response element with agct overhangs, cloned into reporter)” here?
A: The value was “completely inactive”.

Q: With “TREp: optimized palindromic rat growth hormone TRE (SEQ ID NO:10) (AGCTTCAGGTCATGACCTGAGAGCT; DNA, backbone not given here; double-stranded response element with agct overhangs, cloned into reporter plasmid) [reference compound]” as the substance, how does the “T3 responsiveness (in words)” value read?
A: The value was “responsive to T3”.

Reference: patent publication US6492137B1, “Response element compositions and assays employing same” (The Salk Institute for Biological Studies, priority 1989, dated 2002)
